{
  "source": "paper PMC8534050",
  "about": "“Discovery of a Potent and Highly Isoform-Selective Inhibitor of the Neglected Ribosomal Protein S6 Kinase Beta 2 (S6K2)” (Cancers, 2021)",
  "key": {"CAMK4": {"target": "T1, CAMK4 (Homo sapiens, UniProt Q16566)", "T1 construct": "purchased in-house DSF (thermal shift) panel per Fedorov et al", "test": "DSF thermal shift assay", "format": "binding", "conditions": "read-out: ΔTm", "description": "(§1) Differences in the melting temperature (ΔTm) were measured as described by Fedorov et al.. Purified proteins were buffered in 25 mM HEPES (pH 7.5), 500 mM NaCl and were assayed in a 384-well plate with a final protein concentration of 2 μM in 10 μL assay volume. Inhibitors were added to a final concentration of 10 μM using an ECHO 550 acoustic dispenser (Labcyte, San José, CA, USA). As a fluorescence probe, SYPRO-Orange (Molecular Probes, Eugene, OR, USA) was added in a 1:5000 dilution. Filters for excitation and emission were set to 465 nm and 590 nm, respectively. The temperature was increased from 25 °C with 3 °C/min to a final temperature of 95 °C, while scanning, using the QuantStudio5 (Applied Biosystems, Waltham, MA, USA). Data were analyzed through Boltzmann equation in the Protein Thermal Shift software (Applied Biosystems, Waltham, MA, USA). Samples were measured in technical duplicates."}, "CAMKK2": {"target": "T2, CAMKK2 (Homo sapiens, UniProt Q96RR4)", "T2 construct": "purchased in-house DSF (thermal shift) panel per Fedorov et al", "T2 sequence (Q96RR4 whole entry)": "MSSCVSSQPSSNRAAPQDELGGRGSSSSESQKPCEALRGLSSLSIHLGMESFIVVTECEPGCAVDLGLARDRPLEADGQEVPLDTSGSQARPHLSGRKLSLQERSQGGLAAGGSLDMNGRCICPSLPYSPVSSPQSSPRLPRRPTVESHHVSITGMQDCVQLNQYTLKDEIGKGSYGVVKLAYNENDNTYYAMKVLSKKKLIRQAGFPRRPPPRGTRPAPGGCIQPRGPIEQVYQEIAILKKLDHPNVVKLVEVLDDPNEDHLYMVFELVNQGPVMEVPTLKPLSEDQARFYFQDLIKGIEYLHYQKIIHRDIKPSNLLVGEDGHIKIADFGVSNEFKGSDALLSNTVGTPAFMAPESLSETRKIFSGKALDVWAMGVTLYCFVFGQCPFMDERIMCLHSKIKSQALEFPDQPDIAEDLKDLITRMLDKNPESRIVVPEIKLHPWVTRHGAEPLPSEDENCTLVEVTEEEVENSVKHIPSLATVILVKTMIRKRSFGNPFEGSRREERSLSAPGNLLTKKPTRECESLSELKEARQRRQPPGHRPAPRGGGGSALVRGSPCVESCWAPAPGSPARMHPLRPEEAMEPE", "test": "DSF thermal shift assay", "format": "binding", "conditions": "read-out: ΔTm", "description": "as §1"}, "CDC42BPA": {"target": "T3, CDC42BPA (Homo sapiens, UniProt Q5VT25)", "T3 construct": "purchased in-house DSF (thermal shift) panel per Fedorov et al", "test": "DSF thermal shift assay", "format": "binding", "conditions": "read-out: ΔTm", "description": "as §1"}, "DAPK1": {"target": "T4, DAPK1 (Homo sapiens, UniProt P53355)", "T4 construct": "purchased in-house DSF (thermal shift) panel per Fedorov et al", "test": "DSF thermal shift assay", "format": "binding", "conditions": "read-out: ΔTm", "description": "as §1"}, "DCAMKL1": {"target": "T5, DCAMKL1 (Homo sapiens, UniProt O15075)", "T5 construct": "purchased in-house DSF (thermal shift) panel per Fedorov et al", "test": "DSF thermal shift assay", "format": "binding", "conditions": "read-out: ΔTm", "description": "as §1"}, "EPHA7": {"target": "T6, EPHA7 (Homo sapiens, UniProt Q15375)", "T6 construct": "purchased in-house DSF (thermal shift) panel per Fedorov et al", "T6 sequence (Q15375 28-998)": "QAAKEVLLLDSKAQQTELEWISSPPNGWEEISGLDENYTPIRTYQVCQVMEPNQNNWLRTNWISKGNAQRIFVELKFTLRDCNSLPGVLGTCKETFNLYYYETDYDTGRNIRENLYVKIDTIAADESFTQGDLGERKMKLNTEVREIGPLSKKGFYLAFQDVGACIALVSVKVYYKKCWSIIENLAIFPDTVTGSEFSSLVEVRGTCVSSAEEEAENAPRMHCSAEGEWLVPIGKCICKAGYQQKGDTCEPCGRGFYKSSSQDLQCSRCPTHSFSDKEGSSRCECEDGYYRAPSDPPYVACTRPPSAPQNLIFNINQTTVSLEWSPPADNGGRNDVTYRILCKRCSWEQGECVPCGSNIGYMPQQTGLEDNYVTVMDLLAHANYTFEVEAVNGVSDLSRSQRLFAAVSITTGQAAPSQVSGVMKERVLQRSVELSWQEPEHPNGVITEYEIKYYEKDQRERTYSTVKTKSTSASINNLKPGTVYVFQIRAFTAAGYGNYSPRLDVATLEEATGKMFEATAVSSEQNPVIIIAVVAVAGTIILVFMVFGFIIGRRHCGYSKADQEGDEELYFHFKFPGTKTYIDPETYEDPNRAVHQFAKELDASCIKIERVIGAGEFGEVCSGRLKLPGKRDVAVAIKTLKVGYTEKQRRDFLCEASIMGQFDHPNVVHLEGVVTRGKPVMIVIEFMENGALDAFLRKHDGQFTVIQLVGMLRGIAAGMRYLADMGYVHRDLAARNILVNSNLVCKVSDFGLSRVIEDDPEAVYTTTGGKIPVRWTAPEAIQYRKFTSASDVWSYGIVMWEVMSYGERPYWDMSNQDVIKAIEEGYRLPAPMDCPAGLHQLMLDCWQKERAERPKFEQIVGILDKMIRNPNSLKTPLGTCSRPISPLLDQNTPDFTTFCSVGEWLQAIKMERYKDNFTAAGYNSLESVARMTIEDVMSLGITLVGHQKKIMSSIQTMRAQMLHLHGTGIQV", "test": "DSF thermal shift assay", "format": "binding", "conditions": "read-out: ΔTm", "description": "as §1"}, "EPHB3": {"target": "T7, EPHB3 (Homo sapiens, UniProt P54753)", "T7 construct": "purchased in-house DSF (thermal shift) panel per Fedorov et al", "test": "DSF thermal shift assay", "format": "binding", "conditions": "read-out: ΔTm", "description": "as §1"}, "MAPK13": {"target": "T8, MAPK13 (Homo sapiens, UniProt O15264)", "T8 construct": "purchased in-house DSF (thermal shift) panel per Fedorov et al", "test": "DSF thermal shift assay", "format": "binding", "conditions": "read-out: ΔTm", "description": "as §1"}, "MAPK6": {"target": "T9, MAPK6 (Homo sapiens, UniProt Q16659)", "T9 construct": "purchased in-house DSF (thermal shift) panel per Fedorov et al", "test": "DSF thermal shift assay", "format": "binding", "conditions": "read-out: ΔTm", "description": "as §1"}, "MERTK": {"target": "T10, MERTK (Homo sapiens, UniProt Q12866)", "T10 construct": "purchased in-house DSF (thermal shift) panel per Fedorov et al", "test": "DSF thermal shift assay", "format": "binding", "conditions": "read-out: ΔTm", "description": "as §1"}, "NEK2": {"target": "T11, NEK2 (Homo sapiens, UniProt P51955)", "T11 construct": "purchased in-house DSF (thermal shift) panel per Fedorov et al", "T11 sequence (P51955 whole entry)": "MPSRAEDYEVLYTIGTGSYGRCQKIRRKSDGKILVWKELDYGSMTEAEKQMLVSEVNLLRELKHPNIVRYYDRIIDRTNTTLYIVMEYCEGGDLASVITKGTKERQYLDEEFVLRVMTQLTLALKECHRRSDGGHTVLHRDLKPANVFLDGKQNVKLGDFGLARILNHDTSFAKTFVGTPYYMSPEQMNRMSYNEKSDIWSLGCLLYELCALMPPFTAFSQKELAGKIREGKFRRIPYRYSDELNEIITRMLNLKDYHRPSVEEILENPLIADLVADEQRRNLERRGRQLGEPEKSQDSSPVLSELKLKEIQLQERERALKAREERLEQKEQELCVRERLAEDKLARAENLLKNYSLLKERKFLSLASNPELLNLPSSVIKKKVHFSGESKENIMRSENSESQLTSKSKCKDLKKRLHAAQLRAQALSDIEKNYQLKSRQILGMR", "test": "DSF thermal shift assay", "format": "binding", "conditions": "read-out: ΔTm", "description": "as §1"}, "OSR1": {"target": "T12, OSR1 (Homo sapiens, UniProt O95747)", "T12 construct": "purchased in-house DSF (thermal shift) panel per Fedorov et al", "T12 sequence (O95747 whole entry)": "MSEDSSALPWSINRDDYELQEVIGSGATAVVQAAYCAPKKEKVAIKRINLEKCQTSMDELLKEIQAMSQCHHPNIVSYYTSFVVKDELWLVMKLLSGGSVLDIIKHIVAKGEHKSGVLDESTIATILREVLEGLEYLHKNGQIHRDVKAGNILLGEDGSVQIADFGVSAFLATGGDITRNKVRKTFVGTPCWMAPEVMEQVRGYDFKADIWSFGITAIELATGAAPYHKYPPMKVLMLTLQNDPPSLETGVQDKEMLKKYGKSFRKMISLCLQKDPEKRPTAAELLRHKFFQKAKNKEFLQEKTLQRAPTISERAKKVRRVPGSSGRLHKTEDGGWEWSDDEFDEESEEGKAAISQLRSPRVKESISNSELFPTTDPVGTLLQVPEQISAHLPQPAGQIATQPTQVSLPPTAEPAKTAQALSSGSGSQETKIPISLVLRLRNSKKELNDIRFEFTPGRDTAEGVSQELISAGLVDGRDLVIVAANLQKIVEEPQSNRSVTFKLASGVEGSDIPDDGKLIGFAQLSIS", "test": "DSF thermal shift assay", "format": "binding", "conditions": "read-out: ΔTm", "description": "as §1"}, "PAK1": {"target": "T13, PAK1 (Homo sapiens, UniProt Q13153)", "T13 construct": "purchased in-house DSF (thermal shift) panel per Fedorov et al", "T13 sequence (Q13153 whole entry)": "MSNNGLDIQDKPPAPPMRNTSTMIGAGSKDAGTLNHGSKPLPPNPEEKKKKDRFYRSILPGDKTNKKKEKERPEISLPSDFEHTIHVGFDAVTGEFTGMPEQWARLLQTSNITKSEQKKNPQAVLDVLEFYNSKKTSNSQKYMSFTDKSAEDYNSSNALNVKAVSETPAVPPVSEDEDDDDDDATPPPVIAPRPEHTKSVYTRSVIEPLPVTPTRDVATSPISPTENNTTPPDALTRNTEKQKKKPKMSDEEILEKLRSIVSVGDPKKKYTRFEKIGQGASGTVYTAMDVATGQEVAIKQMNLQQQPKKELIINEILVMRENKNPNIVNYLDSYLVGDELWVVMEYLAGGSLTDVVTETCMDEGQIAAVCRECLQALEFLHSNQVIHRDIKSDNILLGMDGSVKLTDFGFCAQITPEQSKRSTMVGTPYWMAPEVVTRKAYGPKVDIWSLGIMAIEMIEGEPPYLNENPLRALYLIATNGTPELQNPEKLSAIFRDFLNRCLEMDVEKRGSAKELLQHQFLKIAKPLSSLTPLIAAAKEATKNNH", "test": "DSF thermal shift assay", "format": "binding", "conditions": "read-out: ΔTm", "description": "as §1"}, "PLK4": {"target": "T14, PLK4 (Homo sapiens, UniProt O00444)", "T14 construct": "purchased in-house DSF (thermal shift) panel per Fedorov et al", "test": "DSF thermal shift assay", "format": "binding", "conditions": "read-out: ΔTm", "description": "as §1"}, "RPS6K5": {"target": "T15, RPS6K5 (Homo sapiens, UniProt O75582)", "T15 construct": "purchased in-house DSF (thermal shift) panel per Fedorov et al", "T15 sequence (O75582 whole entry)": "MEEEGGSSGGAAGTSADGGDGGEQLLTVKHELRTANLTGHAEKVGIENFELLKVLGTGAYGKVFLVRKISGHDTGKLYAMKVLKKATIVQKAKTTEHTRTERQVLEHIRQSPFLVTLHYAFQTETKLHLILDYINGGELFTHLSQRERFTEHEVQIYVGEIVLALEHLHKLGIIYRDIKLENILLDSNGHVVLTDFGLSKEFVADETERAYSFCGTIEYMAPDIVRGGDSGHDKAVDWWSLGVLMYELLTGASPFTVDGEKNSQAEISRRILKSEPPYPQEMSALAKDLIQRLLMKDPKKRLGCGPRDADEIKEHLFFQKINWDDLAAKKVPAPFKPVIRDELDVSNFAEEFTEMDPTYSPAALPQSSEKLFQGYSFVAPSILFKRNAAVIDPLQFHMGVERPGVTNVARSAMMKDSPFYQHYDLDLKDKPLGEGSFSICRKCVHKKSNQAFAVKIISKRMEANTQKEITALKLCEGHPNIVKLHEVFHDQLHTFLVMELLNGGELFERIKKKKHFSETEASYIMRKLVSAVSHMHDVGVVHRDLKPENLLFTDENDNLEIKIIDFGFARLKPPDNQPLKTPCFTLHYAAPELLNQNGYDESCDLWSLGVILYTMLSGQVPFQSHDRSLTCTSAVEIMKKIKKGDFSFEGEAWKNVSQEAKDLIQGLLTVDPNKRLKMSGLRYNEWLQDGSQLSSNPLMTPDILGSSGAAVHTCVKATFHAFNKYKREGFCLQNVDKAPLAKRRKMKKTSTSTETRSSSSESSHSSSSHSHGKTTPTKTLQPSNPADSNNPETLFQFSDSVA", "test": "DSF thermal shift assay", "format": "binding", "conditions": "read-out: ΔTm", "description": "as §1"}, "SLK": {"target": "T16, SLK (Homo sapiens, UniProt Q9H2G2)", "T16 construct": "purchased in-house DSF (thermal shift) panel per Fedorov et al", "test": "DSF thermal shift assay", "format": "binding", "conditions": "read-out: ΔTm", "description": "as §1"}, "STK10": {"target": "T17, STK10 (Homo sapiens, UniProt O94804)", "T17 construct": "purchased in-house DSF (thermal shift) panel per Fedorov et al", "test": "DSF thermal shift assay", "format": "binding", "conditions": "read-out: ΔTm", "description": "as §1"}, "STK3": {"target": "T18, STK3 (Homo sapiens, UniProt Q13188)", "T18 construct": "purchased in-house DSF (thermal shift) panel per Fedorov et al", "T18 sequence (Q13188 whole entry)": "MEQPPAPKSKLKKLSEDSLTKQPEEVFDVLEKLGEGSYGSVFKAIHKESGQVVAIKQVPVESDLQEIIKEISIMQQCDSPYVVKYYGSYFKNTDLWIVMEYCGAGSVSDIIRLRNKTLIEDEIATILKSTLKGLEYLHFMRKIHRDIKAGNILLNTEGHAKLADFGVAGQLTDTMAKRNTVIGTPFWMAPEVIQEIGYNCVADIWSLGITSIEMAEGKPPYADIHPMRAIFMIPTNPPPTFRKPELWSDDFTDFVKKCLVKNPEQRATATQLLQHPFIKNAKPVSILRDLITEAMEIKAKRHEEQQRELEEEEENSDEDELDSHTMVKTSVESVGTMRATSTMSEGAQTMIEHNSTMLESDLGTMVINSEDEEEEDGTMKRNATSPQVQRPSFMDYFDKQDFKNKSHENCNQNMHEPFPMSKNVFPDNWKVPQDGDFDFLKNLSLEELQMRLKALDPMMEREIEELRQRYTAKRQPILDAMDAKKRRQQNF", "test": "DSF thermal shift assay", "format": "binding", "conditions": "read-out: ΔTm", "description": "as §1"}, "STK39": {"target": "T19, STK39 (Homo sapiens, UniProt Q9UEW8)", "T19 construct": "purchased in-house DSF (thermal shift) panel per Fedorov et al; IC50 follow-up at Reaction Biology Corp", "test": "DSF thermal shift assay", "format": "binding", "conditions": "read-out: ΔTm", "description": "as §1"}, "WNK1": {"target": "T20, WNK1 (Homo sapiens, UniProt Q9H4A3)", "T20 construct": "purchased in-house DSF (thermal shift) panel per Fedorov et al", "test": "DSF thermal shift assay", "format": "binding", "conditions": "read-out: ΔTm", "description": "as §1"}, "S6K2 [1]": {"target": "T21, S6K2 (Homo sapiens, UniProt Q9UBS0)", "T21 construct": "purchased Reaction Biology Corp", "T21 sequence (Q9UBS0 whole entry)": "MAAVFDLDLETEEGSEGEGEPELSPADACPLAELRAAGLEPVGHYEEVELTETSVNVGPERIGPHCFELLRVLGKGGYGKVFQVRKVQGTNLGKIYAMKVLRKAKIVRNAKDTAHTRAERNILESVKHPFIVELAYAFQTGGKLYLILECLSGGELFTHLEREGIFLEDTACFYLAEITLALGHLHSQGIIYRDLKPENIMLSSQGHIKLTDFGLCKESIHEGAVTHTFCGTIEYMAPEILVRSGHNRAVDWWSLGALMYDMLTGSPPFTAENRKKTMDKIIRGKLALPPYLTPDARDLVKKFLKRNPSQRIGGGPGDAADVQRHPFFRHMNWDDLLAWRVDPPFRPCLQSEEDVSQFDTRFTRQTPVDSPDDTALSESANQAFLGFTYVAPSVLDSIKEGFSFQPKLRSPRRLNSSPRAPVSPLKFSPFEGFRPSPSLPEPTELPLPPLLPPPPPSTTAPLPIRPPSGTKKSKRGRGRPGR", "test": "HotSpot kinase assay (Reaction Biology)", "format": "biochemical", "conditions": "apparent IC50; five-point; compound 2 triplicate, ± standard deviation", "description": "The provided IC50 values were measured using the HotSpot^TM Kinase Profiling assay and conducted at Reaction Biology Corp. in their facilities in Malvern, PA, USA."}, "S6K1": {"test_system": "S6K1", "conditions": "cited from earlier work"}, "S6K2 [2]": {"test_system": "S6K2", "set-up": "method as in PMID 20704563", "conditions": "cited from earlier work"}, "[3]": {"test": "Glutathione (GSH) stability assay (HPLC)", "conditions": "glutathione (GSH, 5 mM) in MeCN/PBS buffer", "method": "The reaction temperature was chosen to be 40 °C.\nGlutathione (GSH) Stability Assay\n• 0 min: 40% MeOH, 60% phosphate buffer pH 2.3;\n• 20 min: 85% MeOH, 15% phosphate buffer pH 2.3;\n• 9 min: 95% MeOH, 5% phosphate buffer pH 2.3;\n• 10 min: 95% MeOH, 5% phosphate buffer pH 2.3;"}},
  "data": [
    {"smiles": "CN[C@@H]1C[C@H]2O[C@@](C)([C@@H]1OC)n1c3ccccc3c3c4c(c5c6ccccc6n2c5c31)C(=O)NC4", "note": "[Staurosporine, reference compound]", "values": [
      {"measurement": "ΔTm at 10 µM", "setting": "CAMK4", "result": 8.9, "unit": "°C"},
      {"measurement": "ΔTm at 10 µM", "setting": "CAMKK2", "result": 25.1, "unit": "°C"},
      {"measurement": "ΔTm at 10 µM", "setting": "CDC42BPA", "result": 2.2, "unit": "°C"},
      {"measurement": "ΔTm at 10 µM", "setting": "DAPK1", "result": 9.6, "unit": "°C"},
      {"measurement": "ΔTm at 10 µM", "setting": "DCAMKL1", "result": 6.3, "unit": "°C"},
      {"measurement": "ΔTm at 10 µM", "setting": "EPHA7", "result": 12.7, "unit": "°C"},
      {"measurement": "ΔTm at 10 µM", "setting": "EPHB3", "result": 6.7, "unit": "°C"},
      {"measurement": "ΔTm at 10 µM", "setting": "MAPK13", "result": 6.2, "unit": "°C"},
      {"measurement": "ΔTm at 10 µM", "setting": "MAPK6", "result": 1, "unit": "°C"},
      {"measurement": "ΔTm at 10 µM", "setting": "MERTK", "result": 5.9, "unit": "°C"},
      {"measurement": "ΔTm at 10 µM", "setting": "NEK2", "result": 2.2, "unit": "°C"},
      {"measurement": "ΔTm at 10 µM", "setting": "OSR1", "result": 7.6, "unit": "°C"},
      {"measurement": "ΔTm at 10 µM", "setting": "PAK1", "result": 7.4, "unit": "°C"},
      {"measurement": "ΔTm at 10 µM", "setting": "PLK4", "result": 19, "unit": "°C"},
      {"measurement": "ΔTm at 10 µM", "setting": "RPS6K5", "result": 15, "unit": "°C"},
      {"measurement": "ΔTm at 10 µM", "setting": "SLK", "result": 20.8, "unit": "°C"},
      {"measurement": "ΔTm at 10 µM", "setting": "STK10", "result": 24.4, "unit": "°C"},
      {"measurement": "ΔTm at 10 µM", "setting": "STK3", "result": 14.8, "unit": "°C"},
      {"measurement": "ΔTm at 10 µM", "setting": "STK39", "result": 9.3, "unit": "°C"},
      {"measurement": "ΔTm at 10 µM", "setting": "WNK1", "result": 1.4, "unit": "°C"}
    ]},
    {"smiles": "CCc1cnc(Nc2ncccc2[N+](=O)[O-])nc1N1CCN(Cc2nc3cc(C(F)(F)F)ccc3[nH]2)CC1", "note": "[Compound 21]", "values": [
      {"measurement": "IC50", "setting": "S6K2 [1]", "result": "> 5000", "unit": "nM"}
    ]},
    {"smiles": "CCc1cncnc1N1CCN(Cc2nc3ccc(C(F)(F)F)cc3[nH]2)CC1", "note": "[PF-4708671]", "values": [
      {"measurement": "IC50", "setting": "S6K1", "result": 160, "unit": "nM"},
      {"measurement": "Ki", "setting": "S6K1", "result": 20, "unit": "nM"},
      {"measurement": "IC50", "setting": "S6K2 [2]", "result": 65000, "unit": "nM"}
    ]},
    {"smiles": "CN(C)C/C=C/C(=O)Nc1cc2c(Nc3ccc(F)c(Cl)c3)ncnc2cc1O[C@H]1CCOC1", "note": "[Afatinib]", "values": [
      {"measurement": "half-life at […]", "setting": "[3]", "result": 5, "unit": "h"}
    ]}
  ]
}
